# Assay results from patent US20240003884A1, “METHODS AND COMPOSITIONS USING NON-INVASIVE PLASMA GLYCOMIC AND METABOLIC BIOMARKERS OF POST-TREATMENT CONTROL OF HIV” (priority 2020, published 2024).
# Key:
# [1] = tested on: THP-1 derived macrophage-like cells; experiment: LPS/IFNγ-mediated cytokine secretion from THP-1 derived macrophage-like cells (MSD multiplex, ELISA); format: cell-based; conditions: 2 h before LPS/IFNγ for 5 h
# Procedure: (§1) (FIG. 2A) JLat 5A8 or 10.6 clones were stimulated with appropriate stimuli in the presence or absence of L-glutamic acid or vehicle control (cell culture suitable HCl solution). Geometric mean fluorescence intensity (MFI) of HIV-regulated GFP expression was measured by flow cytometry. Cell viability was determined by LIVE/DEAD aqua staining. (FIG. 2B) J-Lat 5A8 cells (n=3) and (FIG. 2C) J-Lat 10.6 cells (n=3), were treated with PMA/I (2 nM/500 nM), ImmunoCult Human CD3/CD28 T Cell Activator (25 μl per 10^6 cells), or TNFα (10 ng/ml) in the presence or absence of L-glutamic acid (5 mM) or appropriate control. Bar graphs display mean±SD values, and statistical comparisons were performed using two-tailed unpaired t-tests. (FIG. 2D) THP-1 cells were differentiated into macrophage-like cells using PMA. Cells were then treated with L-glutamic acid (5 mM), Pyruvic acid (2 mM), or appropriate controls for 2 hours prior to LPS/IFNγ stimulation for 5 hours. […] Bar graphs display mean±SD, and statistical comparisons were performed using two-tailed unpaired t-tests. […] Bar graphs display mean±SD, and statistical comparisons were performed using two-tailed unpaired t-tests.
# In-vitro examination of the impact of L-glutamic acid and pyruvate on myeloid inflammation. THP1 cells were plated in 24-well plates at a density of 7×10^5 cells per well. To differentiate them into macrophages-like, 100 nM of PMA (Sigma catalog #P8139) was added and incubated for 72 hours. After incubation, media was aspirated, and each well was gently washed twice with R10 media. Cells were then rested for 24 hours on R10 media without PMA. After 24 hours, cells were washed again with serum-free RPMI 1640 media and kept on this media for the rest of experiment. Macrophage-like THP1 cells were pre-incubated with L-glutamic acid (5 mM) or Sodium Pyruvate solution (2 mM, Sigma catalog #S8636-100 ml) for 2 hours before stimulating with Escherichia coli serotype O127:B8 LPS (50 ng/ml; Sigma catalog #L3129-10MG) and IFNγ (10 ng/ml; R&D Systems catalog #285-IF-100, respectively). After 5 hours of incubation with LPS/IFNγ, culture supernatants were collected for cytokine quantitation. Supernatant levels of IL-10, IL-12p70, IL-13, IL-1β, IL-2, IL-4, IL-6, and IL-8 were determined using U-PLEX Proinflam Combo 1 (Meso Scale Diagnostic #K15049k-1) according to manufacture. Levels of TNF-α were quantified using DuoSet ELISA kits (R&D Systems catalog #DY210-05).
# Beyond the direct impact on latent viral reactivation, plasma metabolites may exert effects on myeloid inflammation, and such effects may underlie HIV control during ATI. This possibility was tested by examining the effects of L-glutamic acid and pyruvate on lipopolysaccharides (LPS)-mediated secretion of pro-inflammatory cytokines from THP-1 derived macrophage-like cells. These cells are characterized by high basal glycolytic activity, which closely reflects the Warburg-like phenotype observed in HIV-infected individuals37. […] Cells were treated with L-glutamic acid, pyruvate, or appropriate controls for 2 h before stimulating with LPS and IFNγ for 5 h (FIG. 2D).
# [2] = tested on: J-Lat 10.6 cells (latent HIV provirus); conditions: J-Lat clone 10.6
# Procedure: as §1
# [3] = tested on: J-Lat 5A8 cells (latent HIV provirus); conditions: J-Lat clone 5A8
# Procedure: as §1
# Bar graphs display mean±SD values, and statistical comparisons were performed using two-tailed unpaired t-tests.
# [4] = L-glutamic acid 5 mM with stimuli
# [5] = L-glutamic acid 5 mM, 24 hours, vs stimuli alone
# [6] = pyruvate 2 mM, listed as Pyruvate
SMILES,LPS/IFNγ-mediated IL-6 secretion ([1]; L-glutamic acid 5 mM),LPS/IFNγ-mediated TNFα secretion ([1]; L-glutamic acid 5 mM),LPS/IFNγ-mediated anti-inflammatory IL-10 production ([1]; L-glutamic acid 5 mM),"Cell viability (LIVE/DEAD aqua staining) [2, 4]","PMA/ionomycin-induced reactivation of latent HIV (GFP MFI) [2, 5]","TNFα-induced reactivation of latent HIV (GFP MFI) ([2]; TNFα 10 ng/ml, L-glutamic acid 5 mM, 24 hours)","Cell viability (LIVE/DEAD aqua staining) [3, 4]","PMA/ionomycin-induced reactivation of latent HIV (GFP MFI) [3, 5]","αCD3/αCD28-induced reactivation of latent HIV (GFP MFI) [3, 5]",LPS/IFNγ-mediated IL-6 secretion ([1]; pyruvate 2 mM),LPS/IFNγ-mediated TNFα secretion ([1]; pyruvate 2 mM),"LPS/IFNγ-mediated IL-6 secretion [1, 6]","LPS/IFNγ-mediated TNFα secretion [1, 6]"
N[C@@H](CCC(=O)O)C(=O)O [L-glutamic acid],significantly inhibited,significantly inhibited,significantly increased,without impacting viability,inhibited,inhibited,without impacting viability,significantly inhibited,significantly inhibited,–,–,–,–
"CC(=O)C(=O)O [pyruvate, Pyruvic acid]",–,–,–,–,–,–,–,–,–,increased,increased,significantly increased,significantly increased
